Laboratory results taken from US20130004590A1, “ZINC OXIDE/ACID CONTAINING COMPOSITIONS AND METHODS FOR TREATING AND/OR PREVENTING ENZYMATIC IRRITATION” (priority 2011, published 2013).
Like-named read-outs stand apart in the source and are kept apart here.

Columns and labels:
trypsin [1] = experiment: EnzChek protease assay: trypsin inhibition by mixtures of talc with divalent cation salts; format: biochemical; conditions: for Hypothetically calculated additive value of salt and Talc, trypsin inhibition activities (%): Table 3, salt alone plus talc alone (8.55%)
Procedure: The objective of the following experiment was to determine whether and to what extent adding a divalent cation to talc inhibited trypsin activity in an in vitro assay. The inhibition of trypsin-induced cleavage of a fluorescent casein peptide was measured using the EnzChek™ protease assay kit, following manufacturer's instructions (EnzChek™ Protease Assay Kits Product Information, Revised; Molecular Probes, Eugene Oreg.). […] Trypsin working solution (Sigma, St. Louis, Mo., unit/mL) was prepared in digestion buffer provided in the assay kit. Stock solution of BODIPY FL casein (trypsin substrate, mg/mL) was prepared by adding 0.2 mL to the substrate vials (provided in kit), and the final substrate working solution (10 microgram/mL) was prepared by dilution in digestion buffer (pH 7.8). Following incubation of the trypsin, with or without the test materials, with the BODIPY fluorescent casein substrate, at room temperature for one hour, fluorescence was measured (excitation 485 nm/emission 530 nm) using a SpectraMax microtiter plate reader (Molecular Devices Corporation, Sunnyvale, Calif.) and Softmax Pro software (Molecular Devices Corporation). Each experiment was performed in three replicates.

[2] = Procedure: The objective of the following experiment was to determine whether and to what extent adding an acid to a formulation containing zinc oxide had on inhibition of trypsin activity in an in vitro assay. The inhibition of trypsin-induced cleavage of a fluorescent casein peptide was measured using the EnzChek™ protease assay kit, following manufacturer's instructions (EnzChek™ Protease Assay Kits Product Information, Revised; Molecular Probes, Eugene Oreg.). Briefly, mixtures of zinc oxide and acid at different concentrations were prepared in 1×PBS (pH 7.4) and their pH was recorded as listed in the Tables 5-8. Trypsin working solution (Sigma, St. Louis, Mo., unit/mL) was prepared in digestion buffer provided in the assay kit. Stock solution of BODIPY FL casein (trypsin substrate, mg/mL) was prepared by adding 0.2 mL to the substrate vials (provided in kit), and the final substrate working solution (10 microgram/mL) was prepared by dilution in digestion buffer (pH 7.8). Following incubation of the trypsin, with or without the test materials (50 μl), with the BODIPY fluorescent casein substrate, at room temperature for one hour, fluorescence was measured (excitation 485 nm/emission 530 nm) using a SpectraMax microtiter plate reader (Molecular Devices Corporation, Sunnyvale, Calif.) and Softmax Pro software (Molecular Devices Corporation). Each experiment was performed in three replicates.
trypsin [3] = experiment: EnzChek protease assay: trypsin inhibition by zinc oxide/acid mixtures and formulations; format: biochemical; conditions: text b137, on Table 5
Procedure: Each experiment was performed in three replicates.
For preparations, samples were diluted in 1×PBS at 1:10 ratio and subjected to centrifugation at 13,200 rpm for 1 min using Eppendorf Centrifuge (Model 5415D, Eppendorf AG, Hamburg, Germany) to remove the solid formulation ingredients. The supernatants (50 μl) were used for trypsin inhibitory activity analyses as described above. For preparations, samples were diluted in 10, or 20 or 40% ethanol and subjected to centrifugation at 13,200 rpm for 1 min using Eppendorf Centrifuge (Model 5415D, Eppendorf AG, Hamburg, Germany) to remove the solid formulation ingredients. The supernatants (50 μl) were used for trypsin inhibition assay. Possible effects of ethanol solution (10, 20 or 40% ethanol) on trypsin inhibition activity were tested in the same study and found no significant impact.
For the above study, the results are an average of three independent experiments, wherein the samples, which were diluted at 1:10 ratio in 1×PBS solutions containing 10%, 20% or 40% ethanol, were tested in triplicates. The results are from an average of all conditions at the same dilution.
For the currently available product (i.e., Baby Paste 5.0, Mendelson Pharmaceuticals LLC, Mountainside, N.J.), the results are an average of a single study: sample diluted at 1:10 ratio, in 1×PBS solutions containing 10%, 20% or 40% ethanol, was tested in triplicate. […]

For `CC(=O)[O-].CC(=O)[O-].O.[Ca+2]` [Calcium acetate monohydrate], the “Hypothetically calculated additive value of salt and Talc, trypsin inhibition activities (%)” value (trypsin [1]) was 23.86%.

For `[Cl-].[Cl-].[Mg+2]` [Magnesium chloride], the “trypsin inhibitory activity, alone, in words” value (trypsin [1]) was “moderate to low levels” and the “Hypothetically calculated additive value of salt and Talc, trypsin inhibition activities (%)” value (trypsin [1]) was 13.30%.

`CC(=O)O` [acetic acid] showed a pH ([2]; No ZnO, 0.01% acetic acid in 1x PBS) of 6.84 and a pH ([2]; No ZnO, 0.05% acetic acid in 1x PBS) of 4.75.

With `[Cl-].[Cl-].[Zn+2]` [Zinc chloride] the “Hypothetically calculated additive value of salt and Talc, trypsin inhibition activities (%)” value (trypsin [1]) was 89.62%.

For `[Ca+2].[Cl-].[Cl-]` [Calcium chloride], the “Hypothetically calculated additive value of salt and Talc, trypsin inhibition activities (%)” value (trypsin [1]) was 26.50%.

In the case of `O.O.O.O.[Cl][Fe][Cl]` [Iron (II) chloride tetrahydrate], the “Hypothetically calculated additive value of salt and Talc, trypsin inhibition activities (%)” value (trypsin [1]) is reported as 73.62%.

With `CC(=O)[O-].CC(=O)[O-].O.O.O.O.[Mg+2]` [Magnesium acetate tetrahydrate] the “Hypothetically calculated additive value of salt and Talc, trypsin inhibition activities (%)” value (trypsin [1]) was 9.38%.

In the case of `CC(=O)[O-].CC(=O)[O-].[Zn+2]` [Zinc acetate dihydrate], the “Hypothetically calculated additive value of salt and Talc, trypsin inhibition activities (%)” value (trypsin [1]) is reported as 71.39%.

For `[O]=[Zn]` [ZnO, zinc oxide], the “protease activity of zinc oxide, in words” value (trypsin [3]) was “minimal protease activity”, the pH ([2]; 0.1% ZnO, 0.01% acetic acid in 1x PBS) was 7.28 and the pH ([2]; 0.1% ZnO, 0.05% acetic acid in 1x PBS) was 6.03. It also gave a pH ([2]; 0.1% ZnO, No acetic acid in 1x PBS) of 7.61, a pH ([2]; 1% ZnO, 0.01% acetic acid in 1x PBS) of 7.85 and a pH ([2]; 1% ZnO, 0.05% acetic acid in 1x PBS) of 6.08. It also gave a pH ([2]; 1% ZnO, No acetic acid in 1x PBS) of 8.07.
